Reference: the supplement of paper PMC13380429

What was measured:
Conditions in all cases: 72 h
Vero E6 [1] = assay: drug sensitivity score (DSS) for viability; higher = more toxic; extreme values may be limits of the assay
U2OS [2] = assay: as above
HepG2 [3] = assay: as above
Calu-3 [4] = assay: as above
Caco-2 [5] = assay: as above
Vero E6 [6] = assay: relative viability EC50 (midpoint between 100% and the lowest measured viability); higher = less toxic
U2OS [7] = assay: as above
HepG2 [8] = assay: as above
Calu-3 [9] = assay: as above
Caco-2 [10] = assay: as above
Vero E6 [11] = assay: cell viability relative to DMSO; higher = less toxic
U2OS [12] = assay: as above
HepG2 [13] = assay: as above
Calu-3 [14] = assay: as above
Caco-2 [15] = assay: as above

Row | Structure (SMILES) | drug sensitivity score (Vero E6 [1]) | drug sensitivity score (U2OS [2]) | drug sensitivity score (HepG2 [3]) | drug sensitivity score (Calu-3 [4]) | drug sensitivity score (Caco-2 [5]) | relative viability EC50 (Vero E6 [6]) | relative viability EC50 (U2OS [7]) | relative viability EC50 (HepG2 [8]) | relative viability EC50 (Calu-3 [9]) | relative viability EC50 (Caco-2 [10]) | cell viability (Vero E6 [11]; 1 nM) | cell viability (Vero E6 [11]; 10 nM) | cell viability (Vero E6 [11]; 100 nM) | cell viability (Vero E6 [11]; 1000 nM) | cell viability (Vero E6 [11]; 10000 nM) | cell viability (U2OS [12]; 1 nM) | cell viability (U2OS [12]; 10 nM) | cell viability (U2OS [12]; 100 nM) | cell viability (U2OS [12]; 1000 nM) | cell viability (U2OS [12]; 10000 nM) | cell viability (HepG2 [13]; 1 nM) | cell viability (HepG2 [13]; 10 nM) | cell viability (HepG2 [13]; 100 nM) | cell viability (HepG2 [13]; 1000 nM) | cell viability (HepG2 [13]; 10000 nM) | cell viability (Calu-3 [14]; 1 nM) | cell viability (Calu-3 [14]; 10 nM) | cell viability (Calu-3 [14]; 100 nM) | cell viability (Calu-3 [14]; 1000 nM) | cell viability (Calu-3 [14]; 10000 nM) | cell viability (Caco-2 [15]; 1 nM) | cell viability (Caco-2 [15]; 10 nM) | cell viability (Caco-2 [15]; 100 nM) | cell viability (Caco-2 [15]; 1000 nM) | cell viability (Caco-2 [15]; 10000 nM)
1 | CCN(CC)Cc1ccc2cc(COC(=O)Nc3ccc(C(=O)NO)cc3)ccc2c1 [givinostat] | 13.8 | 14.3 | 17 | 15.6 | 13.1 | 0.653 µM | 0.561 µM | 0.327 µM | 0.263 µM | 0.686 µM | 94.7% | 97.7% | 96.7% | 31.6% | -0.1% | 99.6% | 93.2% | 92.7% | 30.8% | 0.6% | 99.8% | 102% | 80.9% | 20.4% | 0.1% | 88.3% | 94.6% | 77.1% | 30.8% | 12.9% | 97.8% | 89.7% | 93.2% | 38.4% | 0.8%
2 | CCCCc1nc2cc(/C=C/C(=O)NO)ccc2n1CCN(CC)CC [SB-939] | 16.3 | 15.5 | 16.8 | 17.6 | 12.9 | 0.417 µM | 0.425 µM | 0.362 µM | 0.195 µM | 0.766 µM | 107% | 99.1% | 95.5% | 13.4% | -0.1% | 101% | 105% | 83.9% | 27.9% | 1.1% | 99.3% | 109% | 89% | 15.7% | 0% | 95.4% | 89.6% | 65.5% | 30.7% | 7.8% | 98% | 97.4% | 98% | 37.6% | 0.6%
3 | O=C(c1ccc(F)cc1)C1CCN(CCn2c(=O)[nH]c3ccccc3c2=O)CC1 [ketanserin] | 0 | 0 | 0 | 0 | 0 | > 10 µM | > 10 µM | > 10 µM | > 10 µM | > 10 µM | 96.9% | 94.9% | 97.8% | 101% | 103% | 90% | 98.3% | 96.1% | 103% | 106% | 102% | 95% | 97.3% | 102% | 97.2% | 96.2% | 95.8% | 90.3% | 92.9% | 102% | 93.1% | 100% | 95.6% | 99.7% | 96.9%
4 | O=c1[nH]c2ccccc2n1CCCN1CCN(C(c2ccccc2)c2ccccc2)CC1 [oxatomide] | 0 | 0 | 1.9 | 0 | 0.1 | > 10 µM | > 10 µM | > 10 µM | > 10 µM | > 10 µM | 106% | 93.1% | 99.9% | 91.7% | 95.6% | 100% | 102% | 94.1% | 97.1% | 106% | 97.7% | 104% | 114% | 81.7% | 92.2% | 107% | 96.1% | 105% | 99.2% | 101% | 117% | 98.6% | 99.1% | 112% | 83.7%
5 | C(=C\c1ccccc1)/CN1CCN(CCOC(c2ccccc2)c2ccccc2)CC1 | 0 | 0 | 0 | 0 | 0.6 | > 10 µM | > 10 µM | > 10 µM | > 10 µM | > 10 µM | 98% | 97% | 95.8% | 91.7% | 91.6% | 99.1% | 95.5% | 95.8% | 103% | 100% | 92.7% | 97.3% | 91.3% | 90.4% | 95.4% | 113% | 99.3% | 98.5% | 92% | 98.8% | 102% | 87.5% | 101% | 99.1% | 80.5%
6 | CCC(CC)O[C@@H]1C=C(C(=O)O)C[C@H](N)[C@H]1NC(C)=O [oseltamivir-carboxylate] | 0 | 0 | 0 | 0 | 0 | > 10 µM | > 10 µM | > 10 µM | > 10 µM | > 10 µM | 98.4% | 99.7% | 98.1% | 95.9% | 104% | 100% | 99.8% | 97.2% | 102% | 105% | 104% | 99.3% | 108% | 95.5% | 115% | 98.9% | 98.6% | 98.6% | 98.2% | 103% | 89.8% | 96.8% | 99.7% | 99.5% | 101%
7 | CCC[C@@]1(CCc2ccccc2)CC(O)=C([C@H](CC)c2cccc(NS(=O)(=O)c3ccc(C(F)(F)F)cn3)c2)C(=O)O1 [tipranavir] | 0 | 0 | 0 | 0 | 0 | > 10 µM | > 10 µM | > 10 µM | > 10 µM | > 10 µM | 104% | 102% | 100% | 102% | 105% | 100% | 99.4% | 100% | 104% | 101% | 94.8% | 103% | 93.6% | 103% | 93.9% | 107% | 98.1% | 102% | 109% | 118% | 98.5% | 97.1% | 93.6% | 103% | 93.1%
8 | COC1=CC(=O)C[C@@H](C)[C@]12Oc1c(Cl)c(OC)cc(OC)c1C2=O [griseofulvin] | 0 | 0 | 0 | 0 | 0 | > 10 µM | > 10 µM | > 10 µM | > 10 µM | > 10 µM | 104% | 98.8% | 91.1% | 107% | 94.8% | 102% | 100% | 102% | 98.8% | 96.2% | 86.3% | 95.5% | 95.6% | 101% | 90% | 106% | 95.7% | 98% | 107% | 108% | 106% | 88.5% | 93.6% | 103% | 88.1%
9 | CSc1ccc(C(=O)N[C@@H]2CCCC[C@@H]2NC(=O)CNC(=O)c2cc(C(F)(F)F)ccc2NC(=O)NC(C)C)cc1 [BMS-CCR2-22] | 0 | 0 | 0.1 | 0 | 0 | > 10 µM | > 10 µM | > 10 µM | > 10 µM | > 10 µM | 101% | 102% | 102% | 101% | 95.1% | 102% | 101% | 96.5% | 103% | 94.5% | 108% | 95.8% | 101% | 98% | 88% | 112% | 94% | 98.1% | 101% | 101% | 93.2% | 87.7% | 94.5% | 100% | 89.6%
10 | Cc1cc(C(C)(C)C)c(O)c(C)c1CC1=NCCN1 [oxymetazoline] | 0 | 0 | 1.5 | 0 | 0.9 | > 10 µM | > 10 µM | > 10 µM | > 10 µM | > 10 µM | 100% | 106% | 102% | 95.7% | 98.7% | 100% | 99.5% | 98.9% | 100% | 96.4% | 103% | 87.9% | 104% | 84% | 88% | 92.1% | 92.3% | 94.5% | 101% | 107% | 97.6% | 93.7% | 80.4% | 96.6% | 83.6%
11 | CN1CC[C@H](c2c(O)cc(O)c3c(=O)cc(-c4ccccc4Cl)oc23)[C@H](O)C1 [alvocidib] | 17.8 | 18.1 | 22.1 | 14.5 | 14.7 | 0.29 µM | 0.28 µM | 0.111 µM | 0.138 µM | 0.242 µM | 102% | 102% | 95.2% | 5.5% | 3.4% | 98.7% | 101% | 95.4% | 3% | 3.4% | 100% | 106% | 59.3% | 9.5% | 7.2% | 89.9% | 98.4% | 80.4% | 36.8% | 37.4% | 104% | 99.3% | 93.3% | 25.5% | 30.2%
